# The PolyMetriX glass transition set
# ± gives the standard deviation of the reports.
row,glass transition temperature,SMILES
1,30.00 °C,*OC(F)(F)COC(=O)c1cccc(C(F)(F)C(F)(F)C(F)(F)c2cccc(C(=O)OCC(*)(F)F)c2)c1 (repeat unit)
2,85.00 °C,*CC(O)COc1ccc(C(C)(C)c2ccc(OCC(O)COc3ccc(Oc4ccc(O*)cc4)cc3)cc2)cc1 (repeat unit)
3,101.00 °C,*CCCOC(=O)c1cc(/N=N/c2ccc(OCC)cc2)ccc1-c1ccc(/N=N/c2ccc(OCC)cc2)cc1C(=O)O* (repeat unit)
4,305.00 °C,*c1ccc(Oc2ccc(-c3nc4ccc(Oc5ccc6nc(*)c(-c7ccccc7)c(-c7ccccc7)c6c5)cc4c(-c4ccccc4)c3-c3ccccc3)cc2)cc1 (repeat unit)
5,72.50 °C,*Oc1ccc(NC(=O)CCCCCCC(=O)Nc2ccc(OC3COC4C(*)COC34)cc2)cc1 (repeat unit)
6,186.00 °C,*Oc1ccc(OC(=O)c2cccc(C(*)=O)c2)cc1 (repeat unit)
7,141.00 °C,*CCCCNC(=O)c1cccc(C(=O)N*)c1 (repeat unit)
8,101.00 °C,*CC(C)(C)COC(=O)c1ccc(-c2ccc(C(=O)O*)cc2)cc1 (repeat unit)
9,133.50 °C,*c1ccc2c(c1)C(=O)N(c1cccc(C(F)(F)C(F)(F)C(F)(F)c3cccc(N4C(=O)c5ccc(C(F)(F)C(F)(F)C(F)(F)C(F)(F)C(F)(F)C(F)(F)C(*)(F)F)cc5C4=O)c3)c1)C2=O (repeat unit)
10,328.00 °C,*c1ccc(-c2ccc(-n3c(=O)c4cc5c(=O)n(*)c(=O)c5cc4c3=O)cc2OC)c(OC)c1 (repeat unit)
11,231.00 °C,*c1cccc(S(=O)(=O)c2cccc(N3C(=O)c4ccc(Oc5ccc(Sc6ccc(Oc7ccc8c(c7)C(=O)N(*)C8=O)cc6)cc5)cc4C3=O)c2)c1 (repeat unit)
12,207.00 °C,*OC(=O)c1ccc(C(=O)OC2CC3CC(*)CC(C2)O3)cc1 (repeat unit)
13,126.00 °C,*CCCCCCCCCCC(=O)Nc1ccc(Oc2cccc(NC(=O)CCCCCCCCCCN3C(=O)c4ccc(C(=O)c5ccc6c(c5)C(=O)N(*)C6=O)cc4C3=O)c2)cc1 (repeat unit)
14,30.00 °C,*CC(*)C(=O)Oc1ccccc1C(=O)OCC (repeat unit)
15,140.00 °C,*CCCCCCCCCCNC(=O)c1ccc(Cc2ccc(C(=O)N*)cc2)cc1 (repeat unit)
16,400.00 °C,*c1ccc(Oc2ccc(-n3c(=O)c4cc5c(=O)n(-c6ccc(Oc7ccc(-c8nc9cc%10sc(*)nc%10cc9s8)cc7)cc6)c(=O)c5cc4c3=O)cc2)cc1 (repeat unit)
17,295.00 °C,*c1ccc(S(=O)(=O)c2ccc(-n3nc(-c4ccc(Oc5ccc(-c6nn(*)c(=O)c7ccccc67)cc5)cc4)c4ccccc4c3=O)cc2)cc1 (repeat unit)
18,-11.00 °C,*O[Si](C)(CCC(F)(F)F)CCC(F)(F)C(F)(F)C(F)(F)C(F)(F)C(F)(F)C(F)(F)C(F)(F)C(F)(F)C(F)(F)C(F)(F)CC[Si](*)(C)CCC(F)(F)F (repeat unit)
19,36.00 °C,*CCCCCCCCCCCCOC(=O)NCCCCCCNC(=O)O* (repeat unit)
20,90.50 °C,*CC(*)(C)C(=O)NC1C(O)OC(CO)C(O)C1O (repeat unit)

row,glass transition temperature,SMILES
1,24.00 °C,*CCOC(=O)CCC(=O)OCCOC(=O)c1ccc(C(=O)O*)cc1 (repeat unit)
2,46.00 °C,*CCCCCCCNC(=O)CCCCCCCCCCCCCCCCCCC(=O)N* (repeat unit)
3,36.00 °C,*/C=C/c1cc(OCCCCCCCCCCCC)c(*)cc1OC (repeat unit)
4,256.00 °C,*Oc1ccc(NC(=O)c2cccc(C(=O)Nc3ccc(Oc4ccc(C5(c6ccc(*)cc6)CC6CCC5C6)cc4)cc3)c2)cc1 (repeat unit)
5,23.10 °C,*/C=C/C1CC(*)C(C(=O)OCCCCCCCCCCCOc2ccc(-c3ccc(C#N)cc3)cc2)C1C(=O)OCCCCCCCCCCCOc1ccc(-c2ccc(C#N)cc2)cc1 (repeat unit)
6,260.00 °C,*c1cccc(NC(=O)c2ccc(-c3ccc(C(=O)Nc4cccc(S(*)(=O)=O)c4)c(C)c3)cc2C)c1 (repeat unit)
7,-8.00 °C,*CCOC(=O)CCCCCCCCCCC(=O)OCCOC(=O)c1ccc(C(=O)O*)cc1 (repeat unit)
8,158.00 °C,*Oc1ccc(C(=O)Nc2cc(SCCC#N)c(NC(=O)c3ccc(*)cc3)cc2SCCC#N)cc1 (repeat unit)
9,55.80 °C,*/C=C/C1CC(*)C(C(=O)OCCCCCCOc2ccc(-c3ccc(C#N)cc3)cc2)C1C(=O)OCCCCCCOc1ccc(-c2ccc(C#N)cc2)cc1 (repeat unit)
10,46.00 °C,*OC(=O)c1ccc(CCCCc2ccc(C(*)=O)cc2)cc1 (repeat unit)
11,-65.00 °C,*O[Si](C)(C)O[Si](*)(C)c1c(F)c(F)c(F)c(F)c1F (repeat unit)
12,290.00 °C,*c1ccc(Oc2ccc(C(C)(C)c3ccc(Oc4ccc(-c5nnc(*)c6c(-c7ccccc7)c(-c7ccc8ccccc8c7)c(-c7ccc8ccccc8c7)c(-c7ccccc7)c56)cc4)cc3)cc2)cc1 (repeat unit)
13,140.00 °C,*Oc1ccc(OC(=O)c2ccc(-c3ccc(C(*)=O)cc3)cc2-c2ccccc2)cc1 (repeat unit)
14,77.00 °C,*CC(*)(C)C(=O)OCCCCCCN1CCN(c2ccc(/N=N/c3ccc(C#N)cc3)cc2)CC1 (repeat unit)
15,83.00 °C,*CCCCCCOC(=O)c1cc(/N=N/c2ccc(OCC)cc2)ccc1-c1ccc(/N=N/c2ccc(OCC)cc2)cc1C(=O)O* (repeat unit)
16,164.00 °C,*CCNC(=O)c1ccc(C(=O)N*)c(Oc2ccccc2)c1 (repeat unit)
17,117.00 °C,*Oc1ccc(SC(=O)Sc2ccc(*)cc2)cc1 (repeat unit)
18,328.00 °C,*C(=O)Nc1cccc(NC(=O)c2ccc3c(c2)C(=O)N(c2ccc(Oc4ccc(C5(c6ccc(Oc7ccc(N8C(=O)c9ccc(*)cc9C8=O)cc7)cc6)NC(=O)c6ccccc65)cc4)cc2)C3=O)c1 (repeat unit)
19,60.00 °C,*CC(*)(C)C(=O)OCCCCCOc1ccc(-c2ccc(C#N)cc2)cc1 (repeat unit)
20,149.00 °C,*CC(c1ccccc1)C1C(=O)N(CCCN(CC)c2ccc(/N=N/c3ccc([N+](=O)[O-])cc3Cl)c(C)c2)C(=O)C1* (repeat unit)

row,glass transition temperature,SMILES
1,158.00 °C,*Oc1ccc(Oc2ccc(S(=O)(=O)c3ccc(Oc4ccc(Oc5cccc(*)n5)cc4)cc3)cc2)cc1 (repeat unit)
2,252.50 °C,*Oc1ccc2c(c1)C(C)(c1ccc(OC(=O)c3ccc(C(*)=O)cc3)cc1)CC2(C)C (repeat unit)
3,65.00 °C,*/C=C/c1cc(OCCCC)c(*)cc1OC (repeat unit)
4,103.00 °C,*CCCCOC(=O)C(Cc1ccccc1)NC(=O)/C=C/C(=O)NC(Cc1ccccc1)C(=O)O* (repeat unit)
5,66.00 °C,*OC1CCC(OC(=O)CCCCCCCCC(*)=O)CC1 (repeat unit)
6,212.00 °C,*OC(=O)Nc1ccc(C)c(NC(=O)OC2CCN(c3ccc(/C=C/C4=CC(=C(C#N)C#N)C=C(/C=C/c5ccc(N6CCC(*)CC6)s5)O4)s3)CC2)c1 (repeat unit)
7,-2.00 °C,*CC(F)(F)C(F)(F)C(F)(F)C(F)(F)COC(=O)NCCCCCCNC(=O)O* (repeat unit)
8,240.00 °C,*C(=O)Nc1ccc(C2(c3ccc(NC(=O)c4ccc5c(c4)C(=O)N(c4ccc(Oc6ccc(N7C(=O)c8ccc(*)cc8C7=O)cc6)cc4)C5=O)cc3)c3ccccc3-c3ccccc32)cc1 (repeat unit)
9,160.00 °C,*CCCCCCCNC(=O)c1ccc(C(=O)N*)cc1 (repeat unit)
10,53.00 °C,*Oc1ccc(CC(NC(=O)CCc2ccc(OC(=O)CCC(C)CC(*)=O)cc2)C(=O)OC)cc1 (repeat unit)
11,266.00 °C,*c1ccc2c(c1)C(=O)N(c1ccc(C(c3ccc(C)c(N4C(=O)c5ccc(C(*)(C(F)(F)F)C(F)(F)F)cc5C4=O)c3)(C(F)(F)F)C(F)(F)F)cc1C)C2=O (repeat unit)
12,54.00 °C,*CC(*)OC(=O)C1(F)C(F)(F)C(F)(F)C(F)(F)C(F)(F)C1(F)F (repeat unit)
13,276.00 °C,*c1ccc2c(c1)C(=O)N(c1ccccc1Oc1ccc(N3C(=O)c4ccc(C(*)(C(F)(F)F)C(F)(F)F)cc4C3=O)cc1)C2=O (repeat unit)
14,14.2 °C,*Oc1ccc(C(C)(C)c2ccc(OC(=O)CCCCCCCCC(*)=O)cc2)cc1 (repeat unit)
15,175.00 °C,*Oc1ccc(C(C)(C)c2ccc(Oc3ccc(C(=O)c4ccc(*)c(S(=O)(=O)O)c4)cc3S(=O)(=O)O)cc2)cc1 (repeat unit)
16,57.21 °C,*CCCCCCC(=O)Oc1ccc(OC(=O)c2ccc3c(c2)C(=O)N(*)C3=O)c(C)c1 (repeat unit)
17,125.00 °C,*Nc1ccc(NC(=O)CCCCCCCCC(*)=O)cc1 (repeat unit)
18,150.00 °C,*CC(*)c1ccc(-c2cccc3nsnc23)cc1 (repeat unit)

row,SMILES,glass transition temperature
1,*/C(Cl)=C(/*)CCCCCCCC (repeat unit),90.00 °C
2,*CC/C=C/C[Si](*)(C)c1ccccc1 (repeat unit),-14.90 °C
3,*C(=O)Nc1ccc(Cc2ccc(NC(=O)c3ccc4c(c3)C(=O)N(c3cccc(P(=O)(c5ccccc5)c5cccc(N6C(=O)c7ccc(*)cc7C6=O)c5)c3)C4=O)cc2)cc1 (repeat unit),233.00 °C
4,*CC(*)c1cccc(Cl)c1 (repeat unit),90.00 °C
5,*CC(*)C(=O)OCC(C)CC (repeat unit),-32.00 °C
6,*N=P(*)(C)c1ccccc1 (repeat unit),37.00 °C
7,*CCCO* (repeat unit) [Polyoxytrimethylene ],-78 ± 3 °C
8,*CC(*)CNc1ccc([N+](=O)[O-])c(C(F)(F)F)c1 (repeat unit),153.00 °C
9,*OP(=O)(Oc1ccc(Br)cc1)Oc1ccc(S(=O)(=O)c2ccc(*)cc2)cc1 (repeat unit),89.00 °C
